Laboratory results as given in article PMC7142710, “Identification of a Key Enzyme for the Hydrolysis of β-(1→3)-Xylosyl Linkage in Red Alga Dulse Xylooligosaccharide from Bifidobacterium Adolescentis” (Marine Drugs, 2020).

Legend:
Test in all cases: HPLC-RI of hydrolysis products
Type in all cases: biochemical
BAD1527 = target: T1, BAD1527 (Bifidobacterium adolescentis, UniProt A1A3M5); details: 10 mM substrate, 50 μg/mL enzyme, 20 mM sodium phosphate pH 6.5, 37 °C, 1 h; weak substrate
T1 construct: gene xynD; full length, N-terminal His-tag (pET28a), no signal peptide, E. coli BL21(DE3), TALON purified
T1 sequence (A1A3M5 1-345): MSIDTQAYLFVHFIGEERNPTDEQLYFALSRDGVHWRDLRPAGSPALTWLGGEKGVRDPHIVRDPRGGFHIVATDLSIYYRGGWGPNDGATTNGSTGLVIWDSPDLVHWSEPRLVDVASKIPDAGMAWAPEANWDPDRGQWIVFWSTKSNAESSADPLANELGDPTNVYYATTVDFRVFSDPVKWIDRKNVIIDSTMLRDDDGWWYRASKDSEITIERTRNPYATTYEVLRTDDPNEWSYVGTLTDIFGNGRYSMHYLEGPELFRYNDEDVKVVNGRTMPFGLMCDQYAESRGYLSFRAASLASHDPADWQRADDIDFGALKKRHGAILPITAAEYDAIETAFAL

BAD0428 = target: T2, BAD0428 (Bifidobacterium adolescentis, UniProt A1A0H6); details: 10 mM substrate, 50 μg/mL enzyme, 20 mM sodium phosphate pH 6.5, 37 °C, 1 h; product xylose
T2 construct: gene xynB; full length, N-terminal His-tag (pET28a), no signal peptide, E. coli BL21(DE3), TALON purified
T2 sequence (A1A0H6 1-543): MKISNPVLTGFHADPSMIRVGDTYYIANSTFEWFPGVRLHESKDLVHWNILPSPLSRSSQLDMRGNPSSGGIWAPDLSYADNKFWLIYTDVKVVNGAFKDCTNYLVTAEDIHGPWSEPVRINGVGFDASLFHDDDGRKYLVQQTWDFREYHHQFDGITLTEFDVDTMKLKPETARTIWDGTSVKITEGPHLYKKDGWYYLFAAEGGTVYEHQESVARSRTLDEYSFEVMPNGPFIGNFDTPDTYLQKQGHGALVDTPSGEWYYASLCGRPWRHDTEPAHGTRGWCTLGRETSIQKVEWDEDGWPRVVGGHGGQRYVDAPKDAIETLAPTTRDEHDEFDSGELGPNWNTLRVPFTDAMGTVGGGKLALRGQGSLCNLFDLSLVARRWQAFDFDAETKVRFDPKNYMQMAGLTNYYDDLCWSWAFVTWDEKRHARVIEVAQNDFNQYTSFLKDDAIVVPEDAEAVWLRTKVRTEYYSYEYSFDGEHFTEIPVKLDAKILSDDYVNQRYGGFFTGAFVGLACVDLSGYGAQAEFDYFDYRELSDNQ

BAD0423 = target: T3, BAD0423 (Bifidobacterium adolescentis, UniProt A1A0H1); details: 10 mM substrate, 50 μg/mL enzyme, 20 mM sodium phosphate pH 6.5, 37 °C, 1 h; products xylose and xylobiose
T3 construct: gene BAD_0423; full length, N-terminal His-tag (pET28a), no signal peptide, E. coli BL21(DE3), TALON purified
T3 sequence (A1A0H1 1-564): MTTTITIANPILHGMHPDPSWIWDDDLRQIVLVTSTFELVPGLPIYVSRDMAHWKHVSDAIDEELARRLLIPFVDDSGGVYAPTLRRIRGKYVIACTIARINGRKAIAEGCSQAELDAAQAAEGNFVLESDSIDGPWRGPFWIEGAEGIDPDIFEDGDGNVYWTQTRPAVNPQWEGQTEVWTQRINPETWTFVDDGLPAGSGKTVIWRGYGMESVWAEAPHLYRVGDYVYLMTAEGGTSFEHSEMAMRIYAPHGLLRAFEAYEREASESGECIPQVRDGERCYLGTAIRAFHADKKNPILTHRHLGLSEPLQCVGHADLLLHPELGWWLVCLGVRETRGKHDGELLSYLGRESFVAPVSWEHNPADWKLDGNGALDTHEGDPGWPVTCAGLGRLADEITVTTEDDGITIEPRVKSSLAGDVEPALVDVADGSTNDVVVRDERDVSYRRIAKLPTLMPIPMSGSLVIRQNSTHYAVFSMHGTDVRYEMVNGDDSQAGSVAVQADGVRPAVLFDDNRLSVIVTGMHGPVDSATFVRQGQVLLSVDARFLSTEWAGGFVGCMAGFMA

OC1OC[C@@H](O[C@@H]2OC[C@@H](O)[C@H](O[C@@H]3OC[C@@H](O)[C@H](O)[C@H]3O)[C@H]2O)[C@H](O)[C@H]1O (stereo partly drawn) [DX3, 2^3-β-D-xylosyl-xylobiose]
specific activity (BAD1527): specific activity of BAD0423, BAD0428, and BAD1527 on DX3 was determined by HPLC
specific activity (BAD0428): specific activity of BAD0423, BAD0428, and BAD1527 on DX3 was determined by HPLC
specific activity (BAD0423): BAD0423 showed low activities on X2 and X3 but high activity on DX3
